Results reported in patent US8916702B2 (priority 2012, dated 2014).
pEC50: −log10 of the molar value. Like-named read-outs stand apart in the source and are kept apart here.

System: HCV pseudoparticles (genotype 1a HCV E1 and E2 envelope, H77C isolate)
Assay: microbe, parasite or virus in culture
Format: cell-based
Conditions: Hepatitis C virus
[1] = Huh-7, read-out: Activity (EC50 class), HCV pseudoparticles (genotype 1a, H77C) in Huh7 cells, EC50 expressed as class A/B
[2] = Huh-7, 48 h, read-out: Activity (EC50 class), HCV pseudoparticle infection of Huh7 cells, luciferase 2 days after infection, EC50 expressed as class A/B
[3] = Huh-7, 48 h, HCV pseudoparticle infection of Huh7 cells, luciferase 2 days after infection, average of duplicates
[4] = Huh-7, 48 h, read-out: Activity (EC50 class), HCV pseudoparticles, Huh7 cells, luciferase 2 days after infection, average of duplicates
[5] = Huh-7, 48 h, HCV pseudoparticles (genotype 1a, H77C) in Huh7 cells, average of duplicate, luciferase 2 days after infection

SMILES | pEC50 [1] | pEC50 [2] | also measured
COc1cccc(NC(=O)C(=O)NCC(C)(C)CNC(=O)c2ccc(Nc3nc(NC4(c5ccc(Cl)cc5)CC4)nc(OCC(F)(F)F)n3)cc2)n1 [Compound 3252] | 8.00 to 11.00 | – | –
O=C(NC[C@H](NC(=O)c1ccc(Nc2nc(NC3(c4ccc(Cl)cc4)CC3)nc(OCC(F)(F)F)n2)cc1)C(=O)O)C(=O)Nc1ccc(CC(F)(F)F)cc1 [Compound 3297] | 8.00 to 11.00 | – | –
CC(=O)N1CCN(c2ccc(NC(=O)C(=O)NCCC(NC(=O)c3ccc(Nc4nc(NC5(c6ccc(Cl)cc6)CC5)nc(OCC(F)(F)F)n4)cc3)C(=O)O)cc2)CC1 (stereo not shown) [Compound 3524] | 8.00 to 11.00 | – | –
COC(=O)[C@H](CCNC(=O)C(=O)NCCc1ccccc1)NC(=O)c1ccc(Nc2nc(NC3(c4ccc(Cl)cc4)CC3)nc(OCC(F)(F)F)n2)cc1 [Compound 1308] | – | 8.00 to 11.00 | –
Cn1cncc1NC(=O)C(=O)NCC[C@H](NC(=O)c1ccc(Nc2nc(NC3(c4ccc(Cl)cc4)CC3)nc(OCC(F)(F)F)n2)cc1)C(=O)O [Compound 1267] | – | 8.00 to 11.00 | pEC50 [3]: 8.28
CC(C)(CNC(=O)C(=O)Nc1ccccc1C(=O)N1CCCCC1)CNC(=O)c1ccc(Nc2nc(NC3(c4ccc(Cl)cc4)CC3)nc(OCC(F)(F)F)n2)cc1 [Compound 3063] | 8.00 to 11.00 | – | –
CC(C)CNC(=O)C(=O)N(CCO)CCCNC(=O)c1ccc(Nc2nc(NC3(c4ccc(Cl)cc4)CC3)nc(OCC(F)(F)F)n2)cc1 [Compound 3505] | 8.00 to 11.00 | – | –
COC(=O)[C@H](CCNC(=O)C(=O)Nc1cccc(-c2c[nH]cn2)c1)NC(=O)c1ccc(Nc2nc(NC3(c4ccc(Cl)cc4)CC3)nc(OCC(F)(F)F)n2)cc1 [Compound 3608] | – | – | pEC50 [4]: 8.00 to 11.00
COC(=O)[C@H](CCNC(=O)C(=O)Nc1ccc(-n2cncn2)cc1)NC(=O)c1ccc(Nc2nc(NC3(c4ccc(Cl)cc4)CC3)nc(OCC(F)(F)F)n2)cc1 [Compound 3130] | 8.00 to 11.00 | – | –
O=C(NCC[C@H](NC(=O)c1ccc(Nc2nc(NC3(c4ccc(Cl)cc4)CC3)nc(OCC(F)(F)F)n2)cc1)C(=O)O)C(=O)Nc1cccc(-n2cnnc2)c1 [Compound 3653] | – | – | pEC50 [4]: 8.00 to 11.00
COC(=O)/C(CCNC(=O)C(=O)Nc1cccc(S(=O)(=O)C(F)(F)F)c1)=N\C(=O)c1ccc(Nc2nc(NC3(c4ccc(Cl)cc4)CC3)nc(OCC(F)(F)F)n2)cc1 [Compound 3589] | 8.00 to 11.00 | – | –
CC1(C)C(CNC(=O)C(=O)NCC[C@@H](NC(=O)c2ccc(Nc3nc(NC4(c5ccc(Cl)cc5)CC4)nc(OCC(F)(F)F)n3)cc2)C(=O)O)C1(C)C [Compound 1449] | – | 8.00 to 11.00 | –
CCC(CC)CNC(=O)C(=O)NCC[C@H](NC(=O)c1ccc(Nc2nc(NC3(c4ccc(Cl)cc4)CC3)nc(OCC(F)(F)F)n2)cc1)C(=O)OC [Compound 1202] | – | 8.00 to 11.00 | –
O=C(NC[C@H](NC(=O)c1ccc(Nc2nc(NC3(c4ccc(Cl)cc4)CC3)nc(OCC(F)(F)F)n2)cc1)C(=O)O)C(=O)NC1CCCCCC1 [Compound 1175] | – | 8.00 to 11.00 | –
CC1(C)[C@H]2C[C@@]1(C)CCC2CNC(=O)C(=O)NCC[C@H](NC(=O)c1ccc(Nc2nc(NC3(c4ccc(Cl)cc4)CC3)nc(OCC(F)(F)F)n2)cc1)C(=O)O (stereo partly shown) [Compound 1211] | – | 8.00 to 11.00 | pEC50 [3]: 9.89
NC(=O)CCc1cccc(NC(=O)C(=O)NCC[C@H](NC(=O)c2ccc(Nc3nc(NC4(c5ccc(Cl)cc5)CC4)nc(OCC(F)(F)F)n3)cc2)C(=O)O)c1 [Compound 3663] | – | – | pEC50 [4]: 8.00 to 11.00
COC(=O)[C@H](CCNC(=O)C(=O)Nc1cc(F)c(F)c(F)c1)NC(=O)c1ccc(Nc2nc(NC3(c4ccc(Cl)cc4)CC3)nc(OCC(F)(F)F)n2)cc1 [Compound 1504] | – | 8.00 to 11.00 | pEC50 [3]: > 8.60
Cc1cc(NC(=O)C(=O)N(CCO)CCCNC(=O)c2ccc(Nc3nc(NC4(c5ccc(Cl)cc5)CC4)nc(OCC(F)(F)F)n3)cc2)no1 [Compound 3500] | 8.00 to 11.00 | – | –
COC(=O)[C@H](CCNC(=O)C(=O)Nc1cccc(C2=NC(C)=CC2)c1)NC(=O)c1ccc(Nc2nc(NC3(c4ccc(Cl)cc4)CC3)nc(OCC(F)(F)F)n2)cc1 [Compound 3601] | – | – | pEC50 [4]: 8.00 to 11.00
COC(=O)[C@H](CNC(=O)C(=O)Nc1ccc(-n2cnnn2)cc1)NC(=O)c1ccc(Nc2nc(NC3(c4ccc(Cl)cc4)CC3)nc(OCC(F)(F)F)n2)cc1 [Compound 3191] | 8.00 to 11.00 | – | pEC50 [5]: 9.09
COC(=O)[C@H](CNC(=O)C(=O)NCC1CCCCC1)NC(=O)c1ccc(Nc2nc(NC3(c4ccc(Cl)cc4)CC3)nc(OCC(F)(F)F)n2)cc1 [Compound 1149] | – | 8.00 to 11.00 | –
COC(=O)[C@H](CCNC(=O)C(=O)Nc1cccc(-c2cccnc2)c1)NC(=O)c1ccc(Nc2nc(NC3(c4ccc(Cl)cc4)CC3)nc(OCC(F)(F)F)n2)cc1 [Compound 3604] | – | – | pEC50 [4]: 8.00 to 11.00
O=C(NCCCCNC(=O)c1ccc(Nc2nc(NC3(c4ccc(Cl)cc4)CC3)nc(OCC(F)(F)F)n2)cc1)C(=O)Nc1ccc(F)cc1 [Compound 3395] | 8.00 to 11.00 | – | –

SMILES | pEC50 [1] | pEC50 [2] | also measured
COC(=O)/C=C/c1ccccc1NC(=O)C(=O)NCC(C)(C)CNC(=O)c1ccc(Nc2nc(NC3(c4ccc(Cl)cc4)CC3)nc(OCC(F)(F)F)n2)cc1 [Compound 3138] | 8.00 to 11.00 | – | pEC50 [5]: 9.34
CCc1cccc(NC(=O)C(=O)NCC(C)(C)CNC(=O)c2ccc(Nc3nc(NC4(c5ccc(Cl)cc5)CC4)nc(OCC(F)(F)F)n3)cc2)c1 [Compound 1591] | – | 8.00 to 11.00 | –
O=C(NCCCNC(=O)c1ccc(Nc2nc(NC3(c4ccc(Cl)cc4)CC3)nc(OCC(F)(F)F)n2)cc1)C(=O)Nc1ccc(F)cc1 [Compound 3360] | 8.00 to 11.00 | – | –
CC(C)(CNC(=O)C(=O)Nc1ccc(C(F)(F)F)cc1C#N)CNC(=O)c1ccc(Nc2nc(NC3(c4ccc(Cl)cc4)CC3)nc(OCC(F)(F)F)n2)cc1 [Compound 3435] | 8.00 to 11.00 | – | –
O=C(NC[C@H](NC(=O)c1ccc(Nc2nc(NC3(c4ccc(Cl)cc4)CC3)nc(OCC(F)(F)F)n2)cc1)C(=O)Cl)C(=O)Nc1ccc(Cl)nc1 [Compound 3739] | – | – | pEC50 [4]: 8.00 to 11.00
CC(C)(CNC(=O)C(=O)Nc1ccc(C(=O)O)cc1)CNC(=O)c1ccc(Nc2nc(NC3(c4ccc(Cl)cc4)CC3)nc(OCC(F)(F)F)n2)cc1 [Compound 1457] | – | 8.00 to 11.00 | –
COC(=O)[C@@H](CCNC(=O)C(O)NCC1CC1c1cccc(F)c1)NC(=O)c1ccc(Nc2nc(NC3(c4ccc(Cl)cc4)CC3)nc(OCC(F)(F)F)n2)cc1 (stereo partly shown) [Compound 1376] | – | 8.00 to 11.00 | –
CC(C)(CNC(=O)C(=O)Nc1nc2c(F)cc(F)cc2s1)CNC(=O)c1ccc(Nc2nc(NC3(c4ccc(Cl)cc4)CC3)nc(OCC(F)(F)F)n2)cc1 [Compound 3809] | – | – | pEC50 [4]: 8.00 to 11.00
CC(C)(CNC(=O)C(=O)Nc1cccc(C(=O)c2cccc(N)c2)c1)CNC(=O)c1ccc(Nc2nc(NC3(c4ccc(Cl)cc4)CC3)nc(OCC(F)(F)F)n2)cc1 [Compound 3400] | 8.00 to 11.00 | – | –
COC(=O)[C@H](CNC(=O)C(=O)Nc1cccnc1)NC(=O)c1ccc(Nc2nc(NC3(c4ccc(Cl)cc4)CC3)nc(OCC(F)(F)F)n2)cc1 [Compound 1259] | – | 8.00 to 11.00 | –
O=C(NC[C@H](NC(=O)c1ccc(Nc2nc(NC3(c4ccc(Cl)cc4)CC3)nc(OCC(F)(F)F)n2)cc1)C(=O)O)C(=O)Nc1cccc(OC(F)F)c1 [Compound 3764] | – | – | pEC50 [4]: 8.00 to 11.00
NC(=O)C(=O)N1CCCC(C(NC(=O)c2ccc(Nc3nc(NC4(c5ccc(Cl)cc5)CC4)nc(OCC(F)(F)F)n3)cc2)C(=O)O)C1 (stereo not shown) [Compound 1018, 2-(1-(2-amino-2-oxoacetyl)piperidin-3-yl)-2-(4-(4-(1-(4-chlorophenyl)cyclopropylamino)-6-(2,2,2-trifluoroethoxy)-1,3,5-triazin-2-ylamino)benzamido)acetic acid] | – | 8.00 to 11.00 | –
CC(C)(CNC(=O)C(=O)Nc1ccccc1C1CC1)CNC(=O)c1ccc(Nc2nc(NC3(c4ccc(Cl)cc4)CC3)nc(OCC(F)(F)F)n2)cc1 [Compound 3076] | 8.00 to 11.00 | – | –
CC(C)(CNC(=O)C(=O)Nc1ccc(-c2nc3ccccc3o2)cc1)CNC(=O)c1ccc(Nc2nc(NC3(c4ccc(Cl)cc4)CC3)nc(OCC(F)(F)F)n2)cc1 [Compound 3831] | – | – | pEC50 [4]: 8.00 to 11.00
O=C(NCC[C@H](NC(=O)c1ccc(Nc2nc(NC3(c4ccc(Cl)cc4)CC3)nc(OCC(F)(F)F)n2)cc1)C(=O)O)C(=O)NC1CCCCC1O (stereo partly shown) [Compound 1113] | – | 8.00 to 11.00 | –
COc1ccc(CNC(=O)C(=O)NC[C@H](NC(=O)c2ccc(Nc3nc(NC4(c5ccc(Cl)cc5)CC4)nc(OCC(F)(F)F)n3)cc2)C(=O)O)c(OC)c1 [Compound 1172] | – | 8.00 to 11.00 | pEC50 [3]: 8.03
COC(=O)[C@H](CCNC(=O)C(=O)Nc1ccc(C)cc1)NC(=O)c1ccc(Nc2nc(NC3(c4ccc(Cl)cc4)CC3)nc(OCC(F)(F)F)n2)cc1 [Compound 3114] | 8.00 to 11.00 | – | pEC50 [5]: 10.08
CC(C)(CNC(=O)C(=O)N1CCc2cc(F)ccc21)CNC(=O)c1ccc(Nc2nc(NC3(c4ccc(Cl)cc4)CC3)nc(OCC(F)(F)F)n2)cc1 [Compound 1585] | – | 8.00 to 11.00 | pEC50 [3]: 10.52
CC(C)(CNC(=O)C(=O)Nc1ccc2ccccc2c1)CNC(=O)c1ccc(Nc2nc(NC3(c4ccc(Cl)cc4)CC3)nc(OCC(F)(F)F)n2)cc1 [Compound 3347] | 8.00 to 11.00 | – | –
CC(C)(CNC(=O)C(=O)Nc1nc2ccc(Cl)cc2s1)CNC(=O)c1ccc(Nc2nc(NC3(c4ccc(Cl)cc4)CC3)nc(OCC(F)(F)F)n2)cc1 [Compound 3807] | – | – | pEC50 (Huh-7, 48 h, HCV pseudoparticles, Huh7 cells, luciferase 2 days after infection, average of duplicates): 9.55; pEC50 [4]: 8.00 to 11.00
O=C(NCC[C@H](NC(=O)c1ccc(Nc2nc(NC3(c4ccc(Cl)cc4)CC3)nc(OCC(F)(F)F)n2)cc1)C(=O)O)C(=O)NCC1CC1 [Compound 1206] | – | 8.00 to 11.00 | –
COC(=O)[C@H](CCNC(=O)C(=O)Nc1cccc(-n2ccnc2)c1)NC(=O)c1ccc(Nc2nc(NC3(c4ccc(Cl)cc4)CC3)nc(OCC(F)(F)F)n2)cc1 [Compound 3610] | – | – | pEC50 [4]: 8.00 to 11.00
COC(=O)[C@H](CNC(=O)C(=O)NCC1OCCc2ccccc21)NC(=O)c1ccc(Nc2nc(NC3(c4ccc(Cl)cc4)CC3)nc(OCC(F)(F)F)n2)cc1 (stereo partly shown) [Compound 1297] | – | 8.00 to 11.00 | –
